Reference: patent US20060241150A1, “P38 kinase inhibitor compositions and methods of using the same” (priority 2003, published 2006)
“Also recorded” adds a separate entry of the source.

Tests used:
Caspase 3 = test: Caspase-3/CPP32 colorimetric protease assay on lysates of HIV-1 infected cells; assay type: cell-based, human; conditions: 89.6 or pNL4-3 virus; FIG. 1D
Procedure: (§1) FACS analysis was performed to identify cells undergoing apoptosis. Equal numbers of cells from each test group were collected for analysis. Apoptosis in experimental cells was analyzed by using an Annexin-V assay kit from PharMingen (CA). Data was analyzed by the CELL Quest program (Beckton-Dickinson, CA). Caspase 3 activity was determined using Caspase-3/CPP32 colorimetric protease assay kit according to the manufacturer's instructions (MBL, Nagoya, Japan).

[1] = system: HIV-1 induced apoptosis in human PBMCs; test: Annexin V-FITC FACS analysis of HIV-1 induced apoptosis in infected PBMCs; assay type: cell-based; conditions: for inhibition of apoptosis induced by 4 subtype divergent primary HIV viral isolates: FIG. 1C
Procedure: (§2) The human CD4^+ T cell line Jurkat, or the monocyte line U937 were obtained from the American Type Culture Collection (Rockville, Md.). Cells were passaged in RPMI1640 (Gibco-BRL, MD) supplemented with 10% FBS, 2 mM L-glutamine, 100 U/ml penicillin G, and 100 μg/ml streptomycin maintained at 37° C. and 5% CO2 and verified routinely to certify that they were Mycoplasma negative. Human PBMCs were isolated from healthy HIV-seronegative donors by Ficoll-Hypaque separation (Pharmacia Biotech AB, Sweden). Peripheral blood mononuclear cells (PBMCs) from healthy adults were incubated for 2 days with 5 μg/ml phytohemagglutinin (PHA, Sigma) before the addition of 5 U/ml of human recombinant interleukin-2 (hrIL-2; R&D system, MN).
Viruses that were assayed in these studies included the pNL 4-3 (dual tropic) virus, which uses both CCR5 & CxCR4 receptors, and 89.6 (dual tropic), which uses CCR5 & CxCR4 receptors. In addition clade specific viruses were studied and these were obtained through the NIH AIDS research and Reference Reagent Program. For infection studies human PBMCs were isolated from normal, sero-negative donors, and infection was accomplished by incubating target cells with HIV-1 virus at a concentration of 100 TCID50/10^6 cells/ml. Culture supernatant was collected at 6, 12 and 24 hr intervals and assayed for virus production by measuring the p24 antigen released into the medium by ELISA (Coulter, FL) according to the manufacturer's instructions. Some data are presented as mean±SEM. For data presented as percent change, the base line (medium alone) value was subtracted from the value of each experimental condition as described in the legend.
as §1

NF-κB = NF-κB dependent luciferase reporter assay in Nef transfected Jurkat cells; assay type: cell-based, human; conditions: 1 μM; 24 hours
Procedure: (§3) Jurkat cells (1×10^6) were seeded onto a 60 mm culture dish (Falcon) and elctrotransfected the cells next day with NF-κB or AP-1 dependent reporter plasmid (10 μg) with pNef (10 μg), and/with or without Cpd4 (1 μM). After 24 hours, transfected cells were lysed with Reporter lysis Buffer (RLB) according to the manufacturer's instructions (Roche, USA). Luciferase activity was measured via LUMAT LB9501 (Berthold, USA). β-Gal levels were used to normalize for transfection efficiency with the chemiluminescent β-Gal reporter gene Assay kit (Roche, USA).

[2] = system: apoptosis of CD8+ T cells co-cultured with HIV infected macrophages; test: Bystander CD8+ T cell apoptosis induced by HIV infected macrophages (Annexin V); assay type: cell-based, human; conditions: 1 μM; latex bead stimulated 89.6 infected macrophages with autologous CD8+ T cells
Procedure: Monocyte-derived macrophages (MDM) were prepared from PBMCs obtained from healthy donors and incubated at 37° C. in polystyrene T-75 flasks for 4-10 hrs at 37° C. After the incubation the cells were washed with RPMI 1640 for 3 times to remove non-adherent cells. The adherent monocytes were detached with ethylene diamine tetra-acetic acid (EDTA) and the purity of the monocyte cell populations thus isolated was >98% as determined by FACS staining for CD14^+. The CD14^+ positive cells were incubated in 6-well plates at a density of 1×10^6 cells/ml in RPMI medium supplemented with 10% human serum.
Human PBMC's were isolated from healthy HIV-seronegative donors as described above. Purified CD8^+ T cells were isolated from PBMC by negative immunoselection using magnetic beads (Dynal, CA), for depletion of CD4^+ T cells. The puity of the isolated CD8+ T cells was determined to be by flow >99% pure. MDM were purified from freshly isolated PBMC as described above. MDM cells were cultured in 6 well plates at 0.5×10^6 cells/ml/well with 10 ng/ml M-CSF (R&D systems, MN) in RPMI 1640/10% Human serum. […] The analysis was performed on a gated CD8^+ T-cells (R1) and further CD8^+ positive cells were analyzed for the CD8^+/Annexin V positive cells (R2 population) in all experimental samples to further analysis the Apoptosis.

[3] = system: FasL expression in HIV-infected PBMCs; test: FasL expression by flow cytometry in HIV-infected PBMCs; assay type: cell-based, human; conditions: 1 μm; PBMC's; 89.6 or pNL4-3
Procedure: as §2
(§4) Viruses that were assayed in these studies included the pNL 4-3 (dual tropic) virus, which uses both CCR5 & CxCR4 receptors, and 89.6 (dual tropic), which uses CCR5 & CxCR4 receptors. In addition clade specific viruses were studied and these were obtained through the NIH AIDS research and Reference Reagent Program. […]
(§5) Single cell suspensions were washed in PBS (pH 7.2) containing 0.2% bovine serum albumin and 0.1% NaN3. […] Data were analyzed using the CELL Quest program (Beckton-Dickinson, CA).

c-Jun = test: Immunoblot of c-Jun in nuclear extracts of Nef treated cells; assay type: cell-based, human; conditions: 1 μM
Procedure: Experimental cells were washed with ice-cold PBS, and the cells were lysed in protein lysis buffer (20 mM Tris (pH7.4), 150 mM NaCl, 1 mM EDTA, 1 mMEGTA, 1% triton, 2.5 mM sodium pyrophosphate, 1 mM […]-glycerolphasphate, 1 mM Na3Vp4, 1 μM/ml leupeptin and 1 mM phenyl methyl-sulfonyl fluoride). After a brief sonication, the lysates were clarified by centrifugation at 10,000 rpm and protein content was measured by the Bradford method (Bio-Rad, CA). Nuclear extracts were prepared using NE-PER nuclear and cytoplasmic extraction reagents (Pierce, USA) and the protein concentration of the nuclear extract was determined by BCA-200 protein assay kit (Pierce, USA) assayed following the manufacturer's instructions.
For Western blot analysis 50 μg of protein per lane was loaded onto acrylamide gels and separated by 12% SDS-PAGE and blotted to PVDF tmnsfer membrane. Immunoblot was carried out using the primary antibody (c-Jun, Phospho-p38 MAP Kinase (Thr180/Tyr182); Cell Signaling, MA, USA) and detected with secondary HRP-conjugated anti-rabbit IgG using Amersham ECL system. Further, the membrane was washed thoroughly using lxWestern re-probe buffer (Geno Tech, MO) and re immunoblotted with anti-actin (Calbiochem, CA) antibody, which recognizes the actin expression in cultured and serves cells as a positive control for gene expression and as an internal standard.

[4] = system: Nef mediated FasL expression in human PBMCs; test: p24gag / FasL flow cytometry in PBMCs infected with Nef positive pNL4-3 virus; assay type: cell-based; conditions: 1 μM; PBMCs infected with pNL4-3 Wt (Nef positive) virus
Description: (§6) Constructs containing Nef were generated using overlap extension PCR at the indicated codons and were cloned into the pCDNA3.1 vector (InVitrogen, CA). The HIV-1 proviral infectious vector pNL4-3 was obtained through the NIH AIDS research and Reference Reagent Program. This vector has been rendered Nef deficient by 5′ frame shift mutation in the Nef region (He, J., Choe, et al, J. Virol. 69, 6705-6711 (1995) which is incorporated herein by reference).
To prepare infectious viral stocks, HIV-1 proviral DNA (pNL4-3 Wt and pNL4-3 and Nef delta) were generated as described Muthumani, K., et al, Journal of Biol. Chem. 277: 37820-37831 (2002). The viral titers were determined by infection of the human T cell line Jurkat using serially diluted virus supernatant. […] Viral stocks were normalized for virus content by infection and titration and stocks were stored in the presence of 10% FBS in aliquots at −80° C. until their use.
(§7) Single cell suspensions were washed in PBS (pH 7.2) containing 0.2% bovine serum albumin and 0.1% NaN3. Cells were incubated with PE labeled […]-CD95L antibody (NOK-1, 0.05 μg/ml, BD Pharmingen, CA, USA) antibody for 60 minutes at 4° C. Cells were washed with PBS and fixed with 2% paraformaldehyde and resuspended in 200 μl PBS and subjected to FACS (FL2 histogram) analysis (Beckton Dickinson, CA). Data were analyzed using the CELL Quest program (Beckton-Dickinson, CA).

[5] = system: Nef driven FasL expression in Jurkat cells; test: FasL expression in Jurkat cells transfected with pNef; assay type: cell-based, human
Description: as §6, §7

p38 MAPK = test: Immunoblot of p38 and phospho-p38 in Nef treated Jurkat cells; assay type: cell-based, human; conditions: 1 μM
Procedure: Experimental cells were washed with ice-cold PBS, and the cells were lysed in protein lysis buffer (20 mM Tris (pH7.4), 150 mM NaCl, 1 mM EDTA, 1 mMEGTA, 1% triton, 2.5 mM sodium pyrophosphate, 1 mM □-glycerolphasphate, 1 mM Na3Vp4, 1 μM/ml leupeptin and 1 mM phenyl methyl-sulfonyl fluoride). After a brief sonication, the lysates were clarified by centrifugation at 10,000 rpm and protein content was measured by the Bradford method (Bio-Rad, CA).
For Western blot analysis 50 μg of protein per lane was loaded onto acrylamide gels and separated by 12% SDS-PAGE and blotted to PVDF tmnsfer membrane. […] Further, the membrane was washed thoroughly using lxWestern re-probe buffer (Geno Tech, MO) and re immunoblotted with anti-actin (Calbiochem, CA) antibody, which recognizes the actin expression in cultured and serves cells as a positive control for gene expression and as an internal standard.

[6] = system: FasL expression in HIV-infected Jurkat T cells; test: FasL expression by flow cytometry in HIV-infected Jurkat T cells; assay type: cell-based, human; conditions: 1 μm, 89.6 or pNL4-3
Procedure: as §2, §4, §5

p38 MAP Kinase = p38 MAP Kinase (Homo sapiens, UniProt Q16539); conditions: cited from earlier work
p38 MAP Kinase, sequence (Q16539 whole entry): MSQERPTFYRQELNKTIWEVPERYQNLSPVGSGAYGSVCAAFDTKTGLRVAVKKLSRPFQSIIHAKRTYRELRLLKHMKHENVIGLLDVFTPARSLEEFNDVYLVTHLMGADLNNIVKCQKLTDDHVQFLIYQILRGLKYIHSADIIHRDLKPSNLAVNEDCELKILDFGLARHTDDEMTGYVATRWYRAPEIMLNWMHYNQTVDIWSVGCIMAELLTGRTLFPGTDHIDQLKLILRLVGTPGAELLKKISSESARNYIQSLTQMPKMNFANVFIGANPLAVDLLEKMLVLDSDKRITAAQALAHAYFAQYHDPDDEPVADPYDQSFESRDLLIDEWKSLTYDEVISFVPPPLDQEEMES

AP-1 = AP-1 dependent luciferase reporter assay in Nef transfected Jurkat cells; assay type: cell-based, human; conditions: 1 μM; 24 hours
Procedure: as §3

| Compound | inhibition of Caspase 3 activity (Caspase 3) [%] | inhibition of apoptosis induced by 4 subtype divergent primary HIV viral isolates ([1]; 1 μM) | inhibition at 1 µM ([1]; Homo sapiens, PBMC, 96 h, read-out: inhibition of apoptosis driven by virus (Annexin V-FITC)) [%] | blocking of Nef activation of NF-κB reporter (NF-κB) | blocking of bystander CD8+ T cell apoptosis [2] | inhibition of FasL induction [3] | Nef mediated phosphorylation / activation of c-Jun (c-Jun) | inhibition of Nef mediated FasL expression [4] | inhibition of Nef driven induction of FasL [5] | total levels of p38 (p38 MAPK) | Nef induced phosphorylation of p38 (p38 MAPK; 15-min exposure) | inhibition of FasL induction [6] | inhibition of p38 MAP Kinase (p38 MAP Kinase; at 1 μM concentrations) | anti-p38 activity compared with SB203580 (p38 MAP Kinase) | inhibition of apoptosis driven by virus (Annexin V-FITC) ([1]; 1 μM, 89.6 or pNL4-3 virus, 4 days post infection) | blocking of Nef activation of AP-1 reporter (AP-1) |
| --- | --- | --- | --- | --- | --- | --- | --- | --- | --- | --- | --- | --- | --- | --- | --- | --- |
| C[S+]([O-])c1ccc(-c2nc(-c3ccc(F)cc3)c(-c3ccncc3)[nH]2)cc1 (stereo not drawn) [SB203580, 4-[5-(4-Fluoro-phenyl)-2-(4-methanesulfinyl-phenyl)-3H-imidazol4-yl]-pyridine, reference compound] | ~50 | could inhibit apoptosis | > 50 | – | – | – | – | – | – | – | – | – | – | – | – | – |
| OCCC#Cc1nc(-c2ccc(F)cc2)c(-c2ccncc2)n1CCCc1ccccc1 [Cpd4, 4-(4-Fluorophenyl)-2-(4-hydroxybutyn-1-yl)-1-(3-phenylpropyl)-5-(4-pyridyl)imidazole] | ~80 | could inhibit apoptosis | – | effectively blocked this effect | effectively blocked bystander apoptosis; also recorded: could prevent Nef driven apoptosis of bystander cells | Strong inhibition of FasL induction; also recorded: severely repressed the surface expression of FasL | decrease in the phosphorylated status of c-Jun; also recorded: can be blocked | aborted completely; also recorded: completely inhibited | potent inhibition of Nef driven induction of FasL; also recorded: thoroughly repressed Nef-induced FasL expression; also recorded: highly suppressed; also recorded: could prevent Nef driven FasL activation | did not alter the total levels of p38 | no detectable increase in the phosphorylation of p38 | Strong inhibition of FasL induction; also recorded: severely repressed the surface expression of FasL | inhibit p38 MAP Kinase | higher anti-p38 activity | over 80% | effectively blocked this effect |
